Legend:
HepG2 = experiment: Cytotoxic activity against human HepG2 cells incubated for 48 hrs by MTT assay; type: functional, cell-based; conditions: HepG2, 48 h
Bel-7402 = experiment: Cytotoxic activity against human Bel7402 cells incubated for 48 hrs by MTT assay; type: functional, cell-based; conditions: Bel-7402, 48 h
HeLa = experiment: Cytotoxic activity against human HeLa cells incubated for 48 hrs by MTT assay; type: functional, cell-based
A549 [1] = experiment: Cytotoxic activity against human A549 cells incubated for 48 hrs by MTT assay; type: functional, cell-based; conditions: A549, 48 h
SGC-7901 = experiment: Cytotoxic activity against human SGC7901 cells incubated for 48 hrs by MTT assay; type: functional, cell-based; conditions: SGC-7901, 48 h
Mus musculus [2] = experiment: Toxicity in nude mouse xenografted with human A549 cells assessed as change in body weight at 6 mg/kg, ig dosed every day (reference value: 25.9 g); type: organism-based; conditions: in vivo, po
Mus musculus [3] = experiment: Toxicity in nude mouse xenografted with human A549 cells assessed as change in body weight at 12 mg/kg, ig dosed every day (reference value: 25.8 g); type: organism-based; conditions: in vivo, po
A549 [4] = experiment: Antitumor activity against human A549 cells xenografted in nude mouse assessed as tumor growth inhibition at 3 to 12 mg/kg, ig dosed every day; type: functional, organism-based
Mus musculus [5] = experiment: Toxicity in nude mouse xenografted with human A549 cells assessed as induction of mouse fatality at 3 mg/kg, ig dosed every day; type: organism-based; conditions: in vivo, po
Mus musculus [6] = experiment: Toxicity in nude mouse xenografted with human A549 cells assessed as induction of mouse fatality at 12 mg/kg, ig dosed every day; type: organism-based; conditions: in vivo, po
A549 [7] = experiment: Antitumor activity against human A549 cells xenografted in nude mouse assessed as relative tumor volume at 6 mg/kg, ig dosed every day relative to initial tumor volume; type: functional
A549 [8] = experiment: Antitumor activity against human A549 cells xenografted in nude mouse assessed as relative tumor volume at 12 mg/kg, ig dosed every day relative to initial tumor volume; type: functional
A549 [9] = experiment: Antitumor activity against human A549 cells xenografted in nude mouse assessed as tumor growth inhibition at 3 mg/kg, ig dosed every day; type: functional; conditions: A549, po, read-out: TGI
A549 [10] = experiment: Antitumor activity against human A549 cells xenografted in nude mouse assessed as tumor growth inhibition at 6 mg/kg, ig dosed every day; type: functional; conditions: A549, po, read-out: TGI
A549 [11] = experiment: Antitumor activity against human A549 cells xenografted in nude mouse assessed as tumor growth inhibition at 12 mg/kg, ig dosed every day; type: functional; conditions: A549, po, read-out: TGI
Mus musculus [12] = experiment: Toxicity in nude mouse xenografted with human A549 cells assessed as induction of mouse fatality at 6 mg/kg, ig dosed every day; type: organism-based; conditions: in vivo, po
Mus musculus [13] = experiment: Toxicity in nude mouse xenografted with human A549 cells assessed as change in body weight at 3 mg/kg, ig dosed every day (reference value: 26.8 g); type: organism-based; conditions: in vivo, po
A549 [14] = experiment: Antitumor activity against human A549 cells xenografted in nude mouse assessed as relative tumor volume at 3 mg/kg, ig dosed every day relative to initial tumor volume; type: functional
Mus musculus [15] = experiment: Toxicity in ip dosed nude mouse assessed as induction of mouse fatality; type: organism-based; conditions: in vivo
Mus musculus [16] = experiment: Toxicity in nude mouse xenografted with human A549 cells assessed as change in body weight at 12 mg/kg, ig dosed every day (reference value: 26.5 g); type: organism-based; conditions: in vivo, po

| SMILES | IC50 (HepG2) [nM] | IC50 (Bel-7402) [nM] | IC50 (HeLa) [nM] | IC50 (A549 [1]) [nM] | IC50 (SGC-7901) [nM] | further results |
| --- | --- | --- | --- | --- | --- | --- |
| CC1=C(OC(=O)N(C)c2ccccc2)C(=O)C=C2C1=CC=C1[C@@]2(C)CC[C@@]2(C)[C@@H]3C[C@](C)(C(=O)OCc4ccccc4)CC[C@]3(C)CC[C@]12C | 4250 | 4070 | 6360 | 14800 | 4310 |  |
| CC1=C(O)C(=O)C=C2C1=CC=C1[C@@]2(C)CC[C@@]2(C)[C@@H]3C[C@](C)(C(=O)OCC(C)C)CC[C@]3(C)CC[C@]12C | 340 | 530 | 410 | 1070 | 240 |  |
| CCCCCCOC(=O)[C@]1(C)CC[C@]2(C)CC[C@]3(C)C4=CC=C5C(=CC(=O)C(O)=C5C)[C@]4(C)CC[C@@]3(C)[C@@H]2C1 | 1740 | 2210 | 1840 | 9310 | 1580 |  |
| CCOC(=O)COC(=O)[C@]1(C)CC[C@]2(C)CC[C@]3(C)C4=CC=C5C(=CC(=O)C(O)=C5C)[C@]4(C)CC[C@@]3(C)[C@@H]2C1 | 760 | 300 | 610 | 3890 | 670 |  |
| CC1=C(OC(=O)N2CCN(C)CC2)C(=O)C=C2C1=CC=C1[C@@]2(C)CC[C@@]2(C)[C@@H]3C[C@](C)(C(=O)OCc4ccccc4)CC[C@]3(C)CC[C@]12C | 2610 | 1020 | 2310 | 5180 | 1280 | Activity (Mus musculus [2]): 27 g; Activity (Mus musculus [3]): 26.9 g; TGI (A549 [4]): Dose-dependent effect; Activity (Mus musculus [5]): Non-Toxic; Activity (Mus musculus [6]): Non-Toxic; fold change (FC) (A549 [7]): 0.63; fold change (FC) (A549 [8]): 0.55; inhibition in vivo at 3 mg/kg (A549 [9]): 46.1%; inhibition in vivo at 6 mg/kg (A549 [10]): 57.5%; inhibition in vivo at 12 mg/kg (A549 [11]): 71%; Activity (Mus musculus [12]): Non-Toxic; Activity (Mus musculus [13]): 26.5 g; fold change (FC) (A549 [14]): 0.76 |
| CC1=C(O)C(=O)C=C2C1=CC=C1[C@@]2(C)CC[C@@]2(C)[C@@H]3C[C@](C)(C(=O)OCc4ccc(Br)cc4)CC[C@]3(C)CC[C@]12C | 660 | 520 | 870 | 3070 | 810 |  |
| C=CCOC(=O)[C@]1(C)CC[C@]2(C)CC[C@]3(C)C4=CC=C5C(=CC(=O)C(O)=C5C)[C@]4(C)CC[C@@]3(C)[C@@H]2C1 | 310 | 630 | 310 | 1490 | 330 |  |
| CCC(C)OC(=O)[C@]1(C)CC[C@]2(C)CC[C@]3(C)C4=CC=C5C(=CC(=O)C(O)=C5C)[C@]4(C)CC[C@@]3(C)[C@@H]2C1 (stereo partly drawn) | 390 | 590 | 360 | 1930 | 360 |  |
| CC1=C(O)C(=O)C=C2C1=CC=C1[C@@]2(C)CC[C@@]2(C)[C@@H]3C[C@](C)(C(=O)OCOCc4ccccc4)CC[C@]3(C)CC[C@]12C | 370 | 510 | 1120 | 3780 | 300 |  |
| CCOC(=O)[C@]1(C)CC[C@]2(C)CC[C@]3(C)C4=CC=C5C(=CC(=O)C(O)=C5C)[C@]4(C)CC[C@@]3(C)[C@@H]2C1 | 490 | 920 | 830 | 1440 | 240 |  |
| CC1=C(OC(=O)N2CCCCC2C)C(=O)C=C2C1=CC=C1[C@@]2(C)CC[C@@]2(C)[C@@H]3C[C@](C)(C(=O)OCc4ccccc4)CC[C@]3(C)CC[C@]12C (stereo partly drawn) | 8190 | 5050 | 4270 | 15000 | 4730 |  |
| CCCCOC(=O)[C@]1(C)CC[C@]2(C)CC[C@]3(C)C4=CC=C5C(=CC(=O)C(O)=C5C)[C@]4(C)CC[C@@]3(C)[C@@H]2C1 | 1050 | 1010 | 790 | 1360 | 730 |  |
| CC1=C(OC(=O)N2CCCCC2)C(=O)C=C2C1=CC=C1[C@@]2(C)CC[C@@]2(C)[C@@H]3C[C@](C)(C(=O)OCc4ccccc4)CC[C@]3(C)CC[C@]12C | 7430 | 3220 | 2820 | 12100 | 3040 |  |
| CC1=C(OC(=O)N2CCN(Cc3ccccc3)CC2)C(=O)C=C2C1=CC=C1[C@@]2(C)CC[C@@]2(C)[C@@H]3C[C@](C)(C(=O)OCc4ccccc4)CC[C@]3(C)CC[C@]12C | 9900 | 5170 | 18000 | 8850 | 11700 |  |
| CCN1CCN(C(=O)OC2=C(C)C3=CC=C4[C@@](C)(CC[C@@]5(C)[C@@H]6C[C@](C)(C(=O)OCc7ccccc7)CC[C@]6(C)CC[C@]45C)C3=CC2=O)CC1 | 4610 | 2440 | 1590 | 5910 | 2880 |  |
| CC1=C(O)C(=O)C=C2C1=CC=C1[C@@]2(C)CC[C@@]2(C)[C@@H]3C[C@](C)(C(=O)OCc4cccc(Cl)c4)CC[C@]3(C)CC[C@]12C | 870 | 370 | 420 | 3250 | 310 |  |
| CC1=C(O)C(=O)C=C2C1=CC=C1[C@@]2(C)CC[C@@]2(C)[C@@H]3C[C@](C)(C(=O)O)CC[C@]3(C)CC[C@]12C [CELASTROL] | 580 | 440 | 840 | 2120 | 870 | Activity (Mus musculus [15]): Toxic; Activity (Mus musculus [6]): Toxic; fold change (FC) (A549 [8]): 0.84; Activity (Mus musculus [16]): 25.5 g; inhibition in vivo at 12 mg/kg (A549 [11]): 62% |
| COC(=O)[C@]1(C)CC[C@]2(C)CC[C@]3(C)C4=CC=C5C(=CC(=O)C(O)=C5C)[C@]4(C)CC[C@@]3(C)[C@@H]2C1 [PRISTIMERIN] | 780 | 1160 | 320 | 1030 | 630 |  |
| CC1=C(O)C(=O)C=C2C1=CC=C1[C@@]2(C)CC[C@@]2(C)[C@@H]3C[C@](C)(C(=O)OCc4ccc(C)cc4)CC[C@]3(C)CC[C@]12C | 430 | 630 | 1050 | 3120 | 700 |  |
| CC1=C(OC(=O)N2CCOCC2)C(=O)C=C2C1=CC=C1[C@@]2(C)CC[C@@]2(C)[C@@H]3C[C@](C)(C(=O)OCc4ccccc4)CC[C@]3(C)CC[C@]12C | 1360 | 1560 | 1550 | 9350 | 1780 |  |
| CC1=C(O)C(=O)C=C2C1=CC=C1[C@@]2(C)CC[C@@]2(C)[C@@H]3C[C@](C)(C(=O)OCc4ccc([N+](=O)[O-])cc4)CC[C@]3(C)CC[C@]12C | 440 | 240 | 410 | 2010 | 510 |  |
| CC1=C(O)C(=O)C=C2C1=CC=C1[C@@]2(C)CC[C@@]2(C)[C@@H]3C[C@](C)(C(=O)OC(C)C)CC[C@]3(C)CC[C@]12C | 320 | 430 | 1750 | 3410 | 470 |  |
| CC(=O)N1CCN(C(=O)OC2=C(C)C3=CC=C4[C@@](C)(CC[C@@]5(C)[C@@H]6C[C@](C)(C(=O)OCc7ccccc7)CC[C@]6(C)CC[C@]45C)C3=CC2=O)CC1 | 5790 | 4230 | 1350 | 7200 | 3640 |  |
| CCCCCOC(=O)[C@]1(C)CC[C@]2(C)CC[C@]3(C)C4=CC=C5C(=CC(=O)C(O)=C5C)[C@]4(C)CC[C@@]3(C)[C@@H]2C1 | 440 | 810 | 560 | 2300 | 460 |  |
| CC1=C(O)C(=O)C=C2C1=CC=C1[C@@]2(C)CC[C@@]2(C)[C@@H]3C[C@](C)(C(=O)OCc4ccc(I)cc4)CC[C@]3(C)CC[C@]12C | 1950 | 860 | 1320 | 7700 | 810 |  |
| CCCOC(=O)[C@]1(C)CC[C@]2(C)CC[C@]3(C)C4=CC=C5C(=CC(=O)C(O)=C5C)[C@]4(C)CC[C@@]3(C)[C@@H]2C1 | 280 | 410 | 1380 | 2150 | 470 |  |
| CC1=C(O)C(=O)C=C2C1=CC=C1[C@@]2(C)CC[C@@]2(C)[C@@H]3C[C@](C)(C(=O)OCc4ccccc4)CC[C@]3(C)CC[C@]12C | 800 | 200 | 460 | 2330 | 310 |  |

— ChEMBL document CHEMBL4033734, “Synthesis of 3- and 29-substituted celastrol derivatives and structure-activity relationship studies of their cytotoxic activities” (Bioorg Med Chem Lett, 2017)
